# Reference: patent US20230204599A1, “TRIAGING METHOD USING CELL FREE NUCLEOSOME LEVELS” (Belgian Volition SRL (BE/BE), priority 2020, published 2023)
# Experiments:
# [1] = cited from earlier work
# sepsis induced in mice = conditions: cited from earlier work
# [2] = system: white cells in fresh healthy whole blood; assay: NETs formation induced in fresh healthy whole blood, H3.1-nucleosome ELISA and Bioanalyzer electrophoresis of plasma; assay type: cell-based, human; conditions: 2 healthy volunteers
# Excerpt: We collected whole blood samples from two healthy volunteers, in whom low levels of circulating NET material would be expected, in EDTA plasma blood collection tubes and in heparin plasma blood collection tubes. The two EDTA plasma blood collection tubes were centrifuged immediately to separate the cellular and plasma fractions to minimise contamination by large chromatin (including NET material) and the plasma was transferred to cryotubes and frozen. The two heparin plasma blood collection tubes were incubated at room temperature for 1 hour with gentle rotation of the tubes. The tubes were then centrifuged and the plasma was transferred to cryotubes and frozen.
# The samples were assayed for nucleosomes containing histone isoform H3.1 (H3.1-nucleosomes) using an ELISA procedure in duplicate. In brief, 20 μl of sample were added to a microtiter well containing magnetic particles precoated with an anti-histone H3.1 antibody. The sample was incubated and the magnetic particles were isolated and washed. An anti-nucleosome antibody directed to bind to a conformational nucleosome epitope conjugated to horse radish peroxidase was added to the magnetic particles. The particles were incubated and then isolated and washed. The bound anti-nucleosome antibody was measured using a coloured substrate reaction. […]
# [3] = single 25 mg/m^2 bolus intravenous dose
molecule,measurement,setting,value
COc1cccc2c1C(=O)c1c(O)c3c(c(O)c1C2=O)C[C@@](O)(C(=O)CO)C[C@@H]3O[C@H]1C[C@H](N)[C@H](O)[C@H](C)O1 [doxorubicin],serum concentration,[1]; [3],10000 ng/mL
same,time serum level remains above 3 μg/ml,[1]; [3],around 4 days
COc1cccc2c1C(=O)c1c(O)c3c(c(O)c1C2=O)C[C@@](O)(C(=O)CO)C[C@@H]3O[C@H]1C[C@H](N)[C@@H](O)[C@H](C)O1 [epirubicin],survival,"sepsis induced in mice; lethal sepsis by cecal ligation and puncture, death in 100% of mice within 72 hours without treatment",75%
same,inflammation measured by circulating inflammatory biomarkers,sepsis induced in mice; septic mice,reduction in inflammation
DNase,half-life,"[1]; in vivo, iv",3 to 4 h
heparin,NET material level in plasma (H3.1-nucleosome ELISA),[2]; blood collection tubes incubated 1 hour at room temperature,high
same,"level of NET material in plasma (DNA fragment size, Bioanalyzer)",[2]; retention time approximately 110 seconds,high
